Four molecules from patent US8034954B2, “Calcium channel antagonists” (Icagen, Inc., priority 2005, dated 2011) can be followed below.

In this experiment the test system is T-type calcium channels. Nature of the experiment: T-type calcium channel inhibitory activity (Fluo-4 FLIPR fluorescence and whole cell patch clamp). The class given is cell-based, mammalian. As to conditions: cells natively expressing T-type channels or HEK-293 cells expressing recombinant T-type calcium channels; fluorometric and electrophysiological methods, not distinguished in the table; read-out: Activity (inhibition of T-type calcium channels, IC50). The method, then: T-type calcium channel inhibitory activity of some compounds of the invention was evaluated using both fluorometric as well as electrophysiological measurement methodologies, which are known to those skilled in the art. Fluorescence measurement of changes in intracellular calcium due to entry of calcium through T-type calcium channels was assessed using calcium sensitive fluorescent dyes Fluo-4 and Fluo-3. In brief, cells natively expressing T-type channels or HEK-293 cells transiently or stably expressing recombinant mammalian T-type calcium channels grown in 96-well tissue culture plates in DMEM/High glucose, Hyclone, Fetal Bovine Serum (10%), and 2 mM sodium pyruvate 2 mM (and for cells lines recombinantly expressing T-type calcium channels, G418@400 mg/liter) were loaded with 4 μM Fluo-4 made up in Earls Balanced Salt Solution (EBSS). After incubation for 30 minutes at room temperature, cells were washed with low calcium (0.5 mM) EBSS to remove extracellular Fluo-4. Baseline fluorescence was measured in a FLIPR (FLuorescence Image Plate Reader) (Molecular Devices Inc) after applying test compounds at desired concentration for 5-10 minutes. The effect of test compound on calcium entry was assessed by monitoring changes in Fluo-4 fluorescence following an elevation of extracellular calcium concentration from 0.5 mM to 5 mM. […] Native cells natively expressing T-type channels or HEK-293 cells transiently or stably expressing recombinant mammalian T-type calcium channels were grown in DMEM/High glucose, Hyclone, Fetal Bovine Serum (10%), 2 mM sodium pyruvate 2 mM (and for cells lines recombinantly expressing T-type calcium channels, G418@400 mg/liter) on glass coverslips in 35 mm tissue culture dishes. […] Electrical currents were measured using the whole cell configuration of the patch clamp technique (Axopatch 200B, Axon Instruments (Molecular Devices) (see Hamill et al (1981) PFugers Arch, 1981 391:85-100) using 2-2.5 MOhm resistance glass pipettes filled with 135 CsF, 5 CsCl, 5 NaCl, 5 EGTA, 10 HEPES, pH 7.3 with CsOH, Osmolarity ˜288 mOsm. Test compound effects were typically assessed under conditions in which approximately half of the available channels were inactivated either by an 8 second conditioning depolarization from a holding potential of −100 mV to a potential ranging from −70 mV to −60 mV or by continually holding the membrane potential at −70 mV. Test compounds were assessed for their ability to reduce the amplitude of the inward T-type calcium current elicited by a 100 ms step depolarization −20 or −30 mV.
For orientation: Patch clamp records ionic current or voltage across a cell membrane.

As to `CCOc1cccc(S(=O)(=O)c2cnc(Nc3cc(NCC[C@H]4CCNC4)nc(C)n3)s2)c1` [Example 10, N-[5-(3-ethoxy-benzenesulfonyl)-thiazol-2-yl]-2-methyl-N′-(R)-(pyrrolidin-3-yl-ethyl)-pyrimidine-4,6-diamine], the IC50 (as a rule, the concentration that inhibits the measured activity by half) was 0.001 to 1 µM.
Next, `CCOc1cccc(S(=O)(=O)c2cnc(Nc3cc(OC[C@H]4CCCN4)nc(C)n3)s2)c1` [Example 21, N-[5-(3-ethoxy-benzenesulfonyl)-thiazol-2-yl]-[2-methyl-((6R)-1-pyrrolidin-2-yl-methoxy)pyrimidin-4-yl]-amine]: 0.001 to 1 µM; `CCOc1cccc(S(=O)(=O)c2cnc(Nc3cc(OCCN(C)C)nc(C(F)(F)F)n3)s2)c1` [Example 28, [6-(2-Dimethylamino-ethoxy)-2-trifluormethyl-pyrimidin-4-yl]-[5-(3-Ethoxy-benzenesulfonyl)-thiazol-2-yl]-amine]: 0.001 to 1 µM; “[5-(3-Ethoxy-benzenesulfonyl)-thiazol-2-yl]-[6-(3-methylamino)propyl)-2-methyl-pyrimidin-4-yl]-amine [Example 35]”: 0.001 to 1 µM.
